In patent publication US8828942B2, “Means for treating synucleinopathies” (Affiris AG, priority 2009, dated 2014):
“Also recorded” adds a separate entry of the source.

Columns and labels:
[1] = test system: recombinant human alpha-synuclein protein; experiment: In vivo testing of mimotopes: serum titer against alpha-synuclein (ELISA); settings: mice immunized with peptide-KLH, alum, OD halfmax
Description: (§1) Inhibiting as well as non-inhibiting peptides were coupled to KLH and injected into mice (wildtype C57/B16 or BalbC mice; subcutaneous injection into the flank) together with an appropriate adjuvant (aluminium hydroxide). Animals were vaccinated 3 times in biweekly intervals and sera were taken biweekly as well. Titers to injected peptides as well as to an irrelevant peptide were determined with every serum. Titers against the recombinant human alpha-synuclein protein and recombinant human beta-synuclein were determined starting with Serum 2 respectively. In general sera were analysed by reaction against peptides coupled to Bovine Serum Albumin (BSA) and recombinant full length proteins which were immobilised on ELISA plates. Titers were determined using anti mouse IgG specific antibodies. For examples of immunogenicity against injected peptide and alpha-synuclein see Table 5 and Table 6.
(§2) Female C57/B16 mice or BalbC, 5-6 mice per group, were subcutaneously immunized with 30 μg peptide coupled to KLH. Control groups were injected with PBS or the original epitope. As adjuvant alum was used. The peptides administered were all able to bind to monoclonal antibodies specifically binding aa100-109 of human alpha-synuclein although some of the peptides did inhibit the binding of the original epitope to its parental antibody in vitro only weakly (in an in vitro inhibition assay). The in vitro ELISA assay to determine the antibody titer was performed with sera of single mice (see Tab. 5) after each vaccination in a two week interval. The wells of the ELISA plate were coated with mimotope-BSA conjugates. The positive control was performed by reaction of the parental antibody with the respective mimotope-BSA conjugate. The detection was performed with anti-mouse IgG. Additionally, recombinant proteins were immobilised on ELISA plates and sera reacted accordingly. For all mimotopes tested in C57/B16 mice or BalbC, antibodies reacting to the individual injected peptide could be detected after repeated vaccination. Although not all mice induced higher titer against alpha-synuclein (see tab. 5 for examples).

[2] = test system: monoclonal antibody 12-9-9; experiment: In vitro binding assay (ELISA) with monoclonal antibody 12-9-9; set-up: species or system mouse; key to Binding: 0: no binding to 12-9-9 detectable in ELISA; 1: weak binding: binding of mimotope weaker compared to the minimal original sequence p5436; 2: strong binding: binding of mimotope similar to the minimal original sequence p5436; settings: for Binding: binding capacity to 12-9-9 in ELISA, peptide-BSA coated (1 μM), compared with p5436; for detection/binding by monoclonal antibody 12-9-9 in ELISA: result in words
Description: A monoclonal antibody derived from the fusion “AFFiRiS 6”: Balb/c mice (Charles River) were immunized with original alpha-synuclein epitope LGKNEEGAPQ-C (SEQ ID NO:3) coupled to BTG (bovine thyroglobuline) and CFA (complete Freund's adjuvant; first injection) as well as IFA (incomplete Freund's adjuvant; 3 booster injections) as adjuvant. LGKNEEGAPQ-peptide-specific (SEQ ID NO: 203) antibody-producing hybridomas are detected by ELISA (LGKNEEGAPQC-peptide-coated (SEQ ID NO: 3)ELISA plates). Human alpha-synuclein (recombinant protein, p4446) is used as positive control peptide: hybridomas recognizing the recombinant protein immobilized on ELISA plates are included because they are binding both peptide and full length alpha-synuclein specifically. […] The Hybridoma clone (12-9-9; IgG1, kappa) was analysed for specific detection of the natural human alpha-synuclein epitope LGKNEEGAPQ. (SEQ ID NO: 203). 12-9-9 recognizes the injected epitope as well as full length alpha-synuclein protein (recombinant protein; obtained from rPeptide, Bogart, Ga., USA) in ELISA (see FIG. 2). […] Thus the minimal required epitope for binding has been defined as KNEEGAP (SEQ ID NO: 139).
Peptides derived from Phage Display as well as N-terminally truncated variants thereof were coupled to BSA and bound to ELISA plates (1 μM) and subsequently incubated with the monoclonal antibody that was used for the screening procedure to analyse binding capacity of identified peptides (see FIG. 4).

[3] = In vivo testing of mimotopes: serum titer against injected peptide (ELISA); settings: mice, 30 μg peptide coupled to KLH, alum, s.c.; titer by ELISA as OD halfmax
Description: as §1, §2

[4] = test system: monoclonal antibody 12-9-9; experiment: In vitro inhibition assay (ELISA); assay type: binding, mouse; set-up: key: 0: no competition of 12-9-9 detectable in ELISA; 1: weak competition: competition of mimotope weaker compared to the minimal original sequence p5436; 2: strong competition: competition of mimotope similar to the minimal original sequence p5436; settings: competition capacity in ELISA, peptide 400 μg/ml to 3 μg/ml, plates coated with p5436 and p4446
Description: Different amounts of peptides (concentrations ranging from 400 μg/ml to 3 μg/ml (serial dilutions), derived from Phage Display were incubated with the monoclonal antibody that was used for the screening procedure. Peptides diminishing subsequent binding of the antibody to the original human alpha-synuclein epitope (p5436) and the human alpha-synuclein protein (p4446) coated on ELISA plates were considered as inhibiting in this assay.

Sequence | Binding [2] | detection/binding by monoclonal antibody 12-9-9 in ELISA [2] | class of immunogenicity: a Syn [1] | Titer in animals OD halfmax injected pep. [3] | Competition [4]
KNEEGAPC [p5436, reference compound] | 2 | detected similarly; also recorded: retained full binding capacities | 2 (peptides inducing an immune response with OD halfmax higher than 1000.) | 10000 | 2
LGKNEEGAPC [p5402, reference compound] | 2 | retained full binding capacities | 2 (peptides inducing an immune response with OD halfmax higher than 1000.) | 20000 | 2

Now from value to sequence, other results behind:

Binding [2] | detection/binding by monoclonal antibody 12-9-9 in ELISA [2] | Sequence | class of immunogenicity: a Syn [1] | Titer in animals OD halfmax injected pep. [3] | Competition [4]
2 | detected similarly | KNAEGAPC [p5439, mimotope] | 1 (peptides inducing an immune response with OD halfmax between 1000 and 51.) | 8000 | 1
2 | – | KNDEGAPC [p5445, mimotope] | 2 (peptides inducing an immune response with OD halfmax higher than 1000.) | 26000 | 2
2 | – | RNEEGAPC [p5443, mimotope] | 1 (peptides inducing an immune response with OD halfmax between 1000 and 51.) | 9000 | 2
